Numbers after ± are expanded uncertainties.
Experiment: molar heat capacity at constant pressure
Details: 101.33 kPa, Crystal 1, DSC

O=[N+]([O-])[O-].O=[N+]([O-])[O-].[Ca+2] [calcium nitrate]
Details	molar heat capacity at constant pressure [J/K/mol]
460.78 K	169.24 ± 12
461 K	167.84 ± 12
461.78 K	169.39 ± 12
462 K	167.76 ± 12
462.78 K	169.54 ± 12
463 K	167.86 ± 12
463.78 K	169.69 ± 12
464 K	168.02 ± 12
464.78 K	169.84 ± 12
465 K	168.08 ± 12
465.78 K	169.99 ± 12
466 K	168.25 ± 12
466.78 K	170.14 ± 12
467 K	168.45 ± 12
467.78 K	170.28 ± 12
468 K	168.56 ± 12
468.78 K	170.43 ± 12
469 K	168.64 ± 12
469.78 K	170.57 ± 12
470 K	168.78 ± 12
470.78 K	170.71 ± 12
471 K	169.08 ± 12
471.78 K	170.84 ± 12
472 K	169 ± 12
472.78 K	170.98 ± 12
473 K	169.04 ± 12
473.78 K	171.11 ± 12
474 K	169.16 ± 12
474.78 K	171.24 ± 12
475 K	169.1 ± 12
475.78 K	171.37 ± 12
476 K	169.34 ± 12
476.78 K	171.5 ± 12
477 K	169.7 ± 12
477.78 K	171.63 ± 12
478 K	169.85 ± 12
478.78 K	171.76 ± 12
479 K	169.98 ± 12
479.78 K	171.88 ± 12
480 K	170.3 ± 12
480.78 K	172.01 ± 12
481 K	170.38 ± 12
481.78 K	172.14 ± 12
482 K	170.53 ± 12
482.78 K	172.27 ± 12
483 K	170.78 ± 12
483.78 K	172.4 ± 12
484 K	171.03 ± 12
484.78 K	172.53 ± 12
485 K	171.06 ± 12
485.78 K	172.66 ± 12
486 K	171.2 ± 12
486.78 K	172.79 ± 12
487 K	171.33 ± 12
487.78 K	172.92 ± 12
488 K	171.57 ± 12
488.78 K	173.05 ± 12
489 K	171.63 ± 12
489.78 K	173.19 ± 12
490 K	171.74 ± 12
490.78 K	173.32 ± 12
491 K	171.84 ± 12
491.78 K	173.45 ± 12
492 K	172.06 ± 12
492.78 K	173.58 ± 12
493 K	172.18 ± 12
493.78 K	173.7 ± 12
494 K	172.32 ± 12
494.78 K	173.83 ± 12
495 K	172.25 ± 12
495.78 K	173.96 ± 12
496 K	172.55 ± 12
496.78 K	174.08 ± 12
497 K	172.8 ± 12
497.78 K	174.21 ± 12
498 K	172.81 ± 12
498.78 K	174.34 ± 12
499 K	172.68 ± 12
499.78 K	174.47 ± 12
500 K	172.79 ± 12
500.78 K	174.6 ± 12
501 K	172.74 ± 12
501.78 K	174.72 ± 12
502 K	172.79 ± 12
502.78 K	174.85 ± 12
503 K	172.93 ± 12
503.78 K	174.98 ± 12
504 K	173.02 ± 12
504.78 K	175.1 ± 12
505 K	173.14 ± 12
505.78 K	175.23 ± 12
506 K	173.3 ± 12
506.78 K	175.35 ± 12
507 K	173.5 ± 12
507.78 K	175.47 ± 12
508 K	173.86 ± 12
508.78 K	175.6 ± 12
509 K	173.88 ± 12
509.78 K	175.72 ± 12
510 K	173.92 ± 12
510.78 K	175.84 ± 12
511 K	174.13 ± 12
511.78 K	175.96 ± 12
512 K	174.3 ± 12
512.78 K	176.08 ± 12
513 K	174.4 ± 12
513.78 K	176.2 ± 12
514 K	174.42 ± 12
514.78 K	176.32 ± 12
515 K	174.62 ± 12
515.78 K	176.44 ± 12
516 K	174.84 ± 12
516.78 K	176.57 ± 12
517 K	175.25 ± 12
517.78 K	176.69 ± 12
518 K	175.28 ± 12
518.78 K	176.81 ± 12
519 K	175.29 ± 12
519.78 K	176.93 ± 12
520 K	175.21 ± 12
520.78 K	177.05 ± 12
521 K	175.26 ± 12
521.78 K	177.17 ± 12
522 K	175.43 ± 12
522.78 K	177.29 ± 12
523 K	175.67 ± 12
523.78 K	177.42 ± 12
524 K	175.75 ± 12
524.78 K	177.54 ± 12
525 K	175.8 ± 12
525.78 K	177.66 ± 12
526 K	175.94 ± 12
526.78 K	177.78 ± 12
527 K	175.82 ± 12
527.78 K	177.91 ± 12
528 K	176.06 ± 12
528.78 K	178.03 ± 12
529 K	176.19 ± 12
529.78 K	178.15 ± 12
530 K	176.36 ± 12
530.78 K	178.27 ± 12
531 K	176.31 ± 12
531.78 K	178.39 ± 12
532 K	176.49 ± 12
532.78 K	178.51 ± 12
533 K	176.66 ± 12
533.78 K	178.64 ± 12
534 K	176.93 ± 12
534.78 K	178.76 ± 12
535 K	177.11 ± 12
535.78 K	178.88 ± 12
536 K	177.34 ± 12
536.78 K	179 ± 12
537 K	177.34 ± 12
537.78 K	179.12 ± 12
538 K	177.42 ± 12
538.78 K	179.24 ± 12
539 K	177.46 ± 12
539.78 K	179.36 ± 13
540 K	177.51 ± 12
540.78 K	179.48 ± 13
541 K	177.41 ± 12
541.78 K	179.6 ± 13
542 K	177.7 ± 12
542.78 K	179.71 ± 13
543 K	177.98 ± 12
543.78 K	179.83 ± 13
544 K	178.12 ± 12
544.78 K	179.95 ± 13
545 K	178.25 ± 12
545.78 K	180.07 ± 13
546 K	178.24 ± 12
546.78 K	180.18 ± 13
547 K	178.5 ± 12
547.78 K	180.3 ± 13
548 K	178.69 ± 12
548.78 K	180.41 ± 13
549 K	178.65 ± 12
549.78 K	180.52 ± 13
550 K	178.93 ± 12
550.78 K	180.64 ± 13
551 K	179.14 ± 12
551.78 K	180.75 ± 13
552 K	179.27 ± 12
552.78 K	180.86 ± 13
553 K	179.3 ± 12
553.78 K	180.97 ± 13
554 K	179.36 ± 12
554.78 K	181.08 ± 13
555 K	179.38 ± 12
555.78 K	181.19 ± 13
556 K	179.42 ± 13
556.78 K	181.3 ± 13
557 K	179.62 ± 13
557.78 K	181.42 ± 13
558 K	179.86 ± 13
558.78 K	181.53 ± 13
559 K	179.79 ± 13
559.78 K	181.64 ± 13
560 K	180.01 ± 13
560.78 K	181.75 ± 13
561 K	180.29 ± 13
561.78 K	181.86 ± 13
562 K	180.36 ± 13
562.78 K	181.98 ± 13
563 K	180.34 ± 13
563.78 K	182.09 ± 13
564 K	180.52 ± 13
564.78 K	182.2 ± 13
565 K	180.58 ± 13
565.78 K	182.32 ± 13
566 K	180.69 ± 13
566.78 K	182.43 ± 13
567 K	180.68 ± 13
567.78 K	182.55 ± 13
568 K	180.69 ± 13
568.78 K	182.66 ± 13
569 K	180.72 ± 13
569.78 K	182.78 ± 13
570 K	180.95 ± 13
570.78 K	182.89 ± 13
571 K	181.01 ± 13
571.78 K	183 ± 13
572 K	181.17 ± 13
572.78 K	183.12 ± 13
573 K	181.26 ± 13
573.78 K	183.23 ± 13
574 K	181.32 ± 13
574.78 K	183.35 ± 13
575 K	181.37 ± 13
575.78 K	183.47 ± 13
576 K	181.6 ± 13
576.78 K	183.59 ± 13
577 K	181.65 ± 13
577.78 K	183.7 ± 13
578 K	181.77 ± 13
578.78 K	183.82 ± 13
579 K	181.78 ± 13
579.78 K	183.94 ± 13
580 K	181.89 ± 13
580.78 K	184.05 ± 13
581 K	181.94 ± 13
581.78 K	184.16 ± 13
582 K	182.11 ± 13
582.78 K	184.27 ± 13
583 K	182.13 ± 13
583.78 K	184.38 ± 13
584 K	182.17 ± 13
584.78 K	184.49 ± 13
585 K	182.35 ± 13
585.78 K	184.59 ± 13
586 K	182.41 ± 13
586.78 K	184.69 ± 13
587 K	182.46 ± 13
587.78 K	184.79 ± 13
588 K	182.63 ± 13
